The values below come from patent publication US12421211B2, “Heterocyclic compounds” (Hoffmann-La Roche Inc., priority 2021, dated 2025).

Each structure is given as a SMILES string. Structures can show the parent of a compound that is named as a salt.

One may read the IC90 as the concentration needed for an effect of 90%.

For one assay, the system named is Acinetobacter baumannii ATCC17961. Nature of the assay: Antimicrobial susceptibility testing: 90% growth inhibitory concentration (IC90) determination. The format is cell-based. Conditions: Acinetobacter baumannii, ATCC17961, 16 h, 90% growth inhibitory concentration, Acinetobacter baumannii ATCC17961, Iso-Sensitest broth, OD 600 nm over 16 h; read-out: ATCC 17961 IC90. The method in brief: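 Growth inhibition derived in log phase from OD600 kinetics (every 20 minutes, 16h, 35±2° C) of ATCC17961 in Iso-Sensitest medium, inoculum ~5×10^5 CFU/ml. Compounds tested as twofold series, 10 points (e.g. 50 to 0.097 μM final); IC90 and IC50 reported.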
Turning to `Cn1c(-c2ccc(-c3c[nH]nc3-c3ccccc3)c(F)c2F)cnc1C(=O)Nc1ccc(C(=O)N2CCN(C(=O)C3CC[N+](C)(C)CC3)CC2)c(Cl)c1` [Example F27, N-[3-chloro-4-[4-(1,1-dimethylpiperidin-1-ium-4-carbonyl)piperazine-1-carbonyl]phenyl]-5-[2,3-difluoro-4-(3-phenyl-1H-pyrazol-4-yl)phenyl]-1-methyl-imidazole-2-carboxamide; formate], the IC90 worked out at 400 nM. For the compound `Cn1c(-c2ccc(-c3cnn4c3CCC4)c(F)c2F)cnc1C(=O)Nc1ccc(C(=O)N2CCN(C(=O)C3CC[N+](C)(C)CC3)CC2)c(Cl)c1` [Example F28, N-[3-chloro-4-[4-(1,1-dimethylpiperidin-1-ium-4-carbonyl)piperazine-1-carbonyl]phenyl]-5-[4-(5,6-dihydro-4H-pyrrolo[1,2-b]pyrazol-3-yl)-2,3-difluoro-phenyl]-1-methyl-imidazole-2-carboxamide; formate], the IC90 was 270 nM.

Consider `COCCn1nc(C)c(-c2ccc(-c3cnc(C(=O)Nc4ccc(C(=O)NC5[C@H]6CN(C(=O)N[C@@H]7C[N+](C)(C)C[C@H]7O)C[C@@H]56)c(Cl)c4)n3C)c(F)c2F)c1C` (mixture of isomers) [Example F60, rac-(1S,5R)-6-[[2-chloro-4-[[5-[2,3-difluoro-4-[1-(2-methoxyethyl)-3,5-dimethyl-pyrazol-4-yl]phenyl]-1-methyl-imidazole-2-carbonyl]amino]benzoyl]amino]-N-[(3R,4R)-4-hydroxy-1,1-dimethyl-pyrrolidin-1-ium-3-yl]-3-azabicyclo[3.1.0]hexane-3-carboxamide; formate], for which the IC90 was 150 nM. Consider `Cc1nn(-c2cn[nH]c2)cc1-c1ccc(-c2cnc(C(=O)Nc3ccc(C(=O)N4CCN(C(=O)C5CC[N+](C)(C)CC5)CC4)c(Cl)c3)n2C)c(F)c1F` [Example F42, N-[3-chloro-4-[4-(1,1-dimethylpiperidin-1-ium-4-carbonyl)piperazine-1-carbonyl]phenyl]-5-[2,3-difluoro-4-[3-methyl-1-(1H-pyrazol-4-yl)pyrazol-4-yl]phenyl]-1-methyl-imidazole-2-carboxamide; formate], for which the IC90 came out at 210 nM. With `COc1ccccc1NC(=O)Cn1cc(-c2ccc(-c3cnc(C(=O)Nc4ccc(C(=O)N5CCN(C(=O)C6CC[N+](C)(C)CC6)CC5)c(Cl)c4)n3C)c(F)c2F)c(C)n1` [Example G7, N-[3-chloro-4-[4-(1,1-dimethylpiperidin-1-ium-4-carbonyl)piperazine-1-carbonyl]phenyl]-5-[2,3-difluoro-4-[1-[2-(2-methoxyanilino)-2-oxo-ethyl]-3-methyl-pyrazol-4-yl]phenyl]-1-methyl-imidazole-2-carboxamide; formate], the IC90 came to 550 nM. For `COCCn1ncc(-c2ccc(-c3cnc(C(=O)Nc4ccc(C(=O)N5CCN(C(=O)C6CC[N+](C)(CC7CNC7)CC6)CC5)c(Cl)c4)n3C)c(F)c2F)c1C` (stereo not shown) [Example B21, N-[4-[4-[1-(azetidin-3-ylmethyl)-1-methyl-piperidin-1-ium-4-carbonyl]piperazine-1-carbonyl]-3-chloro-phenyl]-5-[2,3-difluoro-4-[1-(2-methoxyethyl)-5-methyl-pyrazol-4-yl]phenyl]-1-methyl-imidazole-2-carboxamide; formic acid; formate], the IC90 is 100 nM. For `COCCn1ncc(-c2ccc(-c3cnc(C(=O)Nc4ccc(C(=O)N5CCC(C(=O)N6CC[N+](C)(C)C(CO)C6)CC5)c(Cl)c4)n3C)c(F)c2F)c1C` (stereo not shown) [Example D6, N-[3-chloro-4-[4-[3-(hydroxymethyl)-4,4-dimethyl-piperazin-4-ium-1-carbonyl]piperidine-1-carbonyl]phenyl]-5-[2,3-difluoro-4-[1-(2-methoxyethyl)-5-methyl-pyrazol-4-yl]phenyl]-1-methyl-imidazole-2-carboxamide; formate], the IC90 turned out to be 85 nM. The same measure, in the same setting: the figure for `COCCn1ncc(-c2ccc(-c3cnc(C(=O)Nc4ccc(C(=O)N5CCN(C(=O)CCCC(=O)N6CC[N+](CCCN)(CC(=O)O)CC6)CC5)c(Cl)c4)n3C)c(F)c2F)c1C` [Example P5, 2-[1-(3-aminopropyl)-4-[5-[4-[2-chloro-4-[[5-[2,3-difluoro-4-[1-(2-methoxyethyl)-5-methyl-pyrazol-4-yl]phenyl]-1-methyl-imidazole-2-carbonyl]amino]benzoyl]piperazino]-5-keto-pentanoyl]piperazin-1-ium-1-yl]acetic acid; formate] is 295 nM; for `COCCn1ncc(-c2ccc(-c3cnc(C(=O)Nc4ccc(C(=O)N5CCNCC5)c(Cl)c4)n3C)c(F)c2F)c1C` [Example E7, N-[3-chloro-4-(piperazine-1-carbonyl)phenyl]-5-[2,3-difluoro-4-[1-(2-methoxyethyl)-5-methyl-pyrazol-4-yl]phenyl]-1-methyl-imidazole-2-carboxamide; 2,2,2-trifluoroacetic acid] it is 210 nM.

In the case of `Cc1n[nH]cc1-c1ccc(-c2cnc(C(=O)Nc3ccc(C(=O)N4CCN(C(=O)C[N+](C)(C)C)CC4)c(Cl)c3)n2C)c(F)c1F` [Example D35, [2-[4-[2-chloro-4-[[5-[2,3-difluoro-4-(3-methyl-1H-pyrazol-4-yl)phenyl]-1-methyl-imidazole-2-carbonyl]amino]benzoyl]piperazin-1-yl]-2-oxo-ethyl]-trimethyl-ammonium; formate], the IC90 came out at 170 nM. `Cc1c(-c2ccc(-c3cnc(C(=O)Nc4ccc(C(=O)N5CCN(C(=O)[C@@H]6C[C@@H](O)C[N+]6(C)C)CC5)c(Cl)c4)n3C)c(F)c2F)cnn1CCC(C)(C)O` [Example F4, N-[3-chloro-4-[4-[(2S,4R)-4-hydroxy-1,1-dimethyl-pyrrolidin-1-ium-2-carbonyl]piperazine-1-carbonyl]phenyl]-5-[2,3-difluoro-4-[1-(3-hydroxy-3-methyl-butyl)-5-methyl-pyrazol-4-yl]phenyl]-1-methyl-imidazole-2-carboxamide; formate]: the IC90 was 830 nM.

Staying with this assay, now noted: Acinetobacter baumannii, ATCC17961, 16 h, read-out: ATCC 17961 IC90.
Turning to `COCCn1ncc(-c2ccc(-c3cnc(C(=O)Nc4ccc(C(=O)N5CCN(C(=O)[C@@H]6C[C@@H](O)C[N+]6(C)C)CC5)c(Cl)c4)n3C)c(C)c2F)c1C` [Example O11, N-[3-chloro-4-[4-[(2S,4R)-4-hydroxy-1,1-dimethyl-pyrrolidin-1-ium-2-carbonyl]piperazine-1-carbonyl]phenyl]-5-[3-fluoro-4-[1-(2-methoxyethyl)-5-methyl-pyrazol-4-yl]-2-methyl-phenyl]-1-methyl-imidazole-2-carboxamide; 2,2,2-trifluoroacetate], the IC90 is 156 nM. Take `COCCn1cc(-c2ccc(-c3cnc(C(=O)Nc4ccc(C(=O)N5CCN(C(=O)[C@H]6CC[N@+](CC(=O)O)(CC7CNC7)CC6)CC5)c(Cl)c4)n3C)c(F)c2F)c(C)n1` [Example Q4, cis 2-[1-(azetidin-3-ylmethyl)-4-[4-[2-chloro-4-[[5-[2,3-difluoro-4-[1-(2-methoxyethyl)-3-methyl-pyrazol-4-yl]phenyl]-1-methyl-imidazole-2-carbonyl]amino]benzoyl]piperazine-1-carbonyl]piperidin-1-ium-1-yl]acetic acid formate;]: the IC90 came to 195 nM.
